The term IC50 denotes the concentration that inhibits the measured activity by half.

For the test, the target named is T1, full-length human PKCι (Homo sapiens, UniProt P41743).
T1 construct: Recombinant, full-length human PKCι expressed in Sf21 insect cells is also commercially available; purchased EMD Millipore; host or cells: Sf21 insect cells (baculovirus)
T1 sequence (P41743 1-596): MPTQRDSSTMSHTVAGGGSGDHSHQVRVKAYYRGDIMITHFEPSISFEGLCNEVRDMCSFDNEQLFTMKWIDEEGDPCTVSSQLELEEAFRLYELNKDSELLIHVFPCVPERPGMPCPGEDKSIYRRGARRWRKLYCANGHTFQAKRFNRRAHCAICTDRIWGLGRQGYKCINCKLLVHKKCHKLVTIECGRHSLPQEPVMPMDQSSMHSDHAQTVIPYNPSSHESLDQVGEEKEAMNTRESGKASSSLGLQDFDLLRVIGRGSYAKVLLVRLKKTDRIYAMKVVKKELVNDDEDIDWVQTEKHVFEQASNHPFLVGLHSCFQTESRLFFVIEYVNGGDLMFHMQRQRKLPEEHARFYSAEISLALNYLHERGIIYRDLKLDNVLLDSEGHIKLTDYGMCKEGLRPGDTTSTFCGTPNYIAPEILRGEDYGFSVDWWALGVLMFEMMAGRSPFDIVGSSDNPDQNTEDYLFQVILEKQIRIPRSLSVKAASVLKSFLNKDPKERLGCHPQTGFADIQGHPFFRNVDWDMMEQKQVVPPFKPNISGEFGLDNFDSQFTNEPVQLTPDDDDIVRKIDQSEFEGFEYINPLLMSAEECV
Description: PKCι IC50 IMAP fluorescence polarisation assay, full-length enzyme, 150 μM ATP. Type of test: biochemical. The note with it: read-out: IC50 in IMAP assay against full length PKCi at 150 μM ATP. An excerpt:
Assays are based on the ability of PKCι to phosphorylate a commercially available peptide substrate in vitro. The peptide substrate is FAM-PKCε pseudopeptide derived peptide, and comprises the amino acid sequence 5FAM-ERMRPRKRQGSVRRRV-NH2. Recombinant, full-length human PKCι expressed in Sf21 insect cells is also commercially available. Recombinant, kinase-domain human PKCι is expressed and purified in-house.
The procedure below explains how dose response curves for inhibitors of PKCι are obtained. The screen described is for a 384 well format but the assay can be adapted to 1536 or other formats as required.
Compounds to be tested are dissolved in 100% DMSO. Compounds are diluted as required to give a final concentration of 4% DMSO (v/v) in the assay. 1 μl is plated into 384 well black low-binding flat bottomed assay plates which are used immediately. Dilutions and additions of compound to assay plates are carried out using Matrix WellMate® and Matrix PlateMate® Plus liquid handling systems.
On the day of the screen PKCι/substrate working solution, and ATP working solution, are prepared in buffer containing 20 mM tris-HCl pH7.5, 10 mM MgCl2, 0.01% Triton X100, 250 μM EGTA and 1 mM DTT. The final concentration of PKCι used varies depending on the batch of protein but is typically 15 pM. The final concentration of peptide substrate in the assay is 100 nM. ATP is used at a final concentration of 150 μM or 25 μM in the assays containing full-length or kinase-domain PKCι respectively, which corresponds to five times or equal to the KM^APP for ATP for each enzyme, respectively. The final buffer concentration in the assay is 18 mM tris-HCl pH7.5, 9 mM MgCl2, 0.009% Triton X100, 225 μM EGTA and 0.9 mM DTT. Relevant controls are included, namely no compound and no enzyme. 5 μl PKCι/substrate working solution at 30 pM and 200 nM, respectively, is added to the wells, followed by 4 μl ATP working solution at 375 μM or 62.5 μM for full-length or kinase-domain PKCι respectively, using a 16 channel Matrix pipette. The reaction is allowed to incubate for 60 minutes at room temperature, before the reaction is stopped and developed by the addition of 20 μl IMAP™ development reagent (Molecular Devices). IMAP development reagent consists of 0.25% (v/v) IMAP progressive binding reagent, 17% (v/v) IMAP progressive binding buffer A and 3% (v/v) IMAP progressive binding buffer B. The plates are then incubated for 2 hours at room temperature before being read using an appropriate plate reader, for example a Molecular Devices HT Analyst or a BMG Pherastar. Plates are read using a fluorescence polarisation protocol with excitation at 485 nm and emission at 530 nm, and dichroic mirror at 505 nm.
Percentage inhibition values are calculated from fluorescence polarisation values, using the no compound and no enzyme control values as 0% and 100% inhibition, respectively. IC50 determination is performed with ExcelFit software (IDBS) using curve fit 205. Z′ factors are determined for each plate tested and are all above 0.5.
Alternatively, compounds were tested for their ability to inhibit the kinase activity of recombinant human baculovirus-expressed PKCiota using the immobilized metal-ion affinity particle (IMAP®) fluorescence polarization detection system (Molecular Devices, Sunnyvale, Calif.). PKCiota/IMAP® substrate mixture (2×) was prepared in 1×IMAP assay buffer (Molecular Devices) containing 1 mM DTT so that the final assay concentrations were 15 pM PKCiota (EMD Millipore, Billerica, Mass.) and 100 nM 5-fluorescein-amidite (FAM)-PKC ? -pseudosubstrate (5-FAM-ERMRPRKRQGSVRRRV-NH2) (Molecular Devices). The 2× working solution was added at 5 μL/well into a 384-well black, non-binding, flat bottom assay plate (Corning, Corning, N.Y.). […]
Background: Fluorescence polarisation rises when a labelled molecule tumbles more slowly, as on binding a larger partner.
With `O[C@]12CCN(c3nc(-c4ccnc5[nH]c6ccccc6c45)nc4cncc(C5CC5)c34)[C@H]1CCNC2` (racemic) [Example 113, (±)-(3aS,7aS)-1-[5-Cyclopropyl-2-(9H-pyrido[2,3-b]indol-4-yl)-pyrido[3,4-d]pyrimidin-4-yl]-octahydro-pyrrolo [3,2-c]pyridin-3a-ol], the IC50 was less than 100 nM. Then `CN(c1nc(-c2ccnc3[nH]c4ccccc4c23)nc2cncc(C3CC3)c12)[C@@H]1CCNC[C@@]1(C)O` (racemic) [Example 114, (±)-(3,4-trans)-4-{[5-Cyclopropyl-2-(9H-pyrido[2,3-b]indol-4-yl)-pyrido[3,4-d]pyrimidin-4-yl]-methyl-amino}-3-methyl-piperidin-3-ol], with less than 100 nM. In the case of `Cc1cc2c(-c3nc(N4CC[C@]5(O)CNCC[C@H]45)c4c(C5CCC5)cncc4n3)ccnc2[nH]1` (racemic) [Example 117, (±)-(3aS,7aS)-1-[5-Cyclobutyl-2-(2-methyl-1H-pyrrolo[2,3-b]pyridin-4-yl)-pyrido[3,4-d]pyrimidin-4-yl]-octahydro-pyrrolo [3,2-c]pyridin-3a-ol], the IC50 is less than 100 nM. In the case of `O[C@]12CCN(c3nc(-c4ccnc5[nH]c(-c6ccccc6Cl)cc45)nc4cncc(C5CC5)c34)[C@H]1CCNC2` (racemic) [Example 143, (±)-(3aS,7aS)-1-{2-[2-(2-Chloro-phenyl)-1H-pyrrolo[2,3-b]pyridin-4-yl]-5-cyclopropyl-pyrido[3,4-d]pyrimidin-4-yl}-octahydro-pyrrolo [3,2-c]pyridin-3a-ol], the IC50 was less than 100 nM. Regarding `O[C@]12CCN(c3nc(-c4ccnc(Nc5nc6ccccn6n5)c4)nc4cncc(C5CC5)c34)[C@H]1CCNC2` (racemic) [Example 151, (±)-(3aS,7aS)-1-{5-Cyclopropyl-2-[2-([1,2,4]triazolo[1,5-a]pyridin-2-ylamino)-pyridin-4-yl]-pyrido[3,4-d]pyrimidin-4-yl}-octahydro-pyrrolo [3,2-c]pyridin-3a-ol], the IC50 was less than 100 nM. For `N[C@H]1C[C@H](Nc2nc(-c3ccnc4[nH]c5ccccc5c34)nc3cncc(C4CCC4)c23)C[C@H]1F` (racemic) [Example 207, (±)-(1S,3S,4S)-N*l*-[5-Cyclobutyl-2-(9H-pyrido[2,3-b]indol-4-yl)-pyrido[3,4-d]pyrimidin-4-yl]-4-fluoro-cyclopentane-1,3-diamine], the IC50 was in the range of 100 to 1000 nM. On to `C[C@@H]1CNCC[C@H]1Nc1nc(-c2ccnc(Nc3nc(F)ccc3F)c2)nc2cncc(C3CC3)c12` (racemic) [Example 223, (±)-{5-Cyclopropyl-2-[2-(3,6-difluoro-pyridin-2-ylamino)-pyridin-4-yl]-pyrido[3,4-d]pyrimidin-4-yl}-((3,4-trans)-3-methyl-piperidin-4-yl)-amine], for which the IC50 is less than 100 nM. Then `C[C@@H]1CNCC[C@@H]1Nc1nc(-c2ccnc(Nc3nc(F)ccc3F)c2)nc2cncc(C3CC3)c12` (racemic) [Example 224, (±)-{5-Cyclopropyl-2-[2-(3,6-difluoro-pyridin-2-ylamino)-pyridin-4-yl]-pyrido[3,4-d]pyrimidin-4-yl}-((3,4-cis)-3-methyl-piperidin-4-yl)-amine], with less than 100 nM; and `C[C@H]1C[C@@H](Nc2nc(-c3ccnc(Nc4nc(F)ccc4F)c3)nc3cncc(C4CC4)c23)CCN1` (racemic) [Example 225, (±)-{5-Cyclopropyl-2-[2-(3,6-difluoro-pyridin-2-ylamino)-pyridin-4-yl]-pyrido[3,4-d]pyrimidin-4-yl}-((2,4-cis)-2-methyl-piperidin-4-yl)-amine], with less than 100 nM. Then `C[C@@H]1C[C@@H](Nc2nc(-c3ccnc(Nc4nc(F)ccc4F)c3)nc3cncc(C4CC4)c23)CCN1` (racemic) [Example 226, (±)-{5-Cyclopropyl-2-[2-(3,6-difluoro-pyridin-2-ylamino)-pyridin-4-yl]-pyrido[3,4-d]pyrimidin-4-yl}-((2,4-trans)-2-methyl-piperidin-4-yl)-amine], with 100 to 1000 nM; and `OC1CNCCC(Nc2nc(-c3ccnc4[nH]c5ccccc5c34)nc3cncc(C4CCC4)c23)C1` (racemic) [Example 230, Cis- or trans-(±)-5-[5-Cyclobutyl-2-(9H-pyrido[2,3-b]indol-4-yl)-pyrido[3,4-d]pyrimidin-4-ylamino]-azepan-3-ol], with less than 100 nM; and `OC1CNCCC(Nc2nc(-c3ccnc4[nH]c5ccccc5c34)nc3cncc(C4CCC4)c23)C1` (racemic) [Example 231, Trans- or cis-(±)-5-[5-Cyclobutyl-2-(9H-pyrido[2,3-b]indol-4-yl)-pyrido[3,4-d]pyrimidin-4-ylamino]-azepan-3-ol], with less than 100 nM. On to `CC1(C)CNCCC1Nc1nc(-c2ccnc(Nc3ncn(-c4ccccc4)n3)c2)nc2cncc(C3CC3)c12` (racemic) [Example 233, rac-{5-Cyclopropyl-2-[2-(1-phenyl-1H-1,2,4-triazol-3-ylamino)-pyridin-4-yl]-pyrido[3,4-d]pyrimidin-4-yl}-(3,3-dimethyl-piperidin-4-yl)-amine], for which the IC50 was less than 100 nM. Then `CN(c1nc(-c2ccnc(Nc3ncn(-c4ccccc4)n3)c2)nc2cncc(C3CC3)c12)C1CCNCC1(C)C` (racemic) [Example 234, rac-{5-Cyclopropyl-2-[2-(1-phenyl-1H-1,2,4-triazol-3-ylamino)-pyridin-4-yl]-pyrido[3,4-d]pyrimidin-4-yl}-(3,3-dimethyl-piperidin-4-yl)-methyl-amine], with less than 100 nM; and `CC1(C)CNCCC1Nc1nc(-c2ccnc(Nc3ncn(Cc4ccccc4)n3)c2)nc2cncc(C3CC3)c12` (racemic) [Example 237, rac-{2-[2-(1-Benzyl-1H-1,2,4-triazol-3-ylamino)-pyridin-4-yl]-5-cyclopropyl-pyrido[3,4-d]pyrimidin-4-yl}-(3,3-dimethyl-piperidin-4-yl)-amine], with less than 100 nM. Regarding `CN(c1nc(-c2ccnc(Nc3ncn(Cc4ccccc4)n3)c2)nc2cncc(C3CC3)c12)C1CCNCC1(C)C` (racemic) [Example 238, rac-{2-[2-(1-Benzyl-1H-1,2,4-triazol-3-ylamino)-pyridin-4-yl]-5-cyclopropyl-pyrido[3,4-d]pyrimidin-4-yl}-(3,3-dimethyl-piperidin-4-yl)-methyl-amine], the IC50 is less than 100 nM. In the case of `O[C@]12CCN(c3nc(-c4ccnc(Nc5ncn(Cc6ccccc6)n5)c4)nc4cncc(C5CC5)c34)[C@H]1CCNC2` (racemic) [Example 240, rac-(3aS,7aS)-1-{2-[2-(1-Benzyl-1H-1,2,4-triazol-3-ylamino)-pyridin-4-yl]-5-cyclopropyl-pyrido[3,4-d]pyrimidin-4-yl}-octahydro-pyrrolo[3,2-c]pyridin-3a-ol], the IC50 was less than 100 nM.

The values are drawn from patent publication US10414763B2 (CANCER RESEARCH TECHNOLOGY LIMITED, priority 2014, dated 2019).
